The values below come from ChEMBL document CHEMBL1201862, “PubChem BioAssay data set” (2004).

Activity calls are given as the source filed them.

Experiment [1] concerns the target Nuclear receptor subfamily 5 group A member 2 (Homo sapiens, UniProt O00482). It counts as functional, cell-based.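 Also: HEK293T cells transfected with LRH-1 and a StAR promoter luciferase reporter; potency for inhibitors that lower LRH-1 driven reporter light.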
Another experiment has as its target Steroidogenic factor 1 (Homo sapiens, UniProt Q13285). The experiment is described as follows: Counterscreen for inverse agonists of the liver receptor homolog-1 (LRH-1; NR5A2): Luminescence-based cell-based high throughput dose response assay to identify inverse agonists of the Steroidogenic Factor 1 Nuclear Receptor (SF1; NR5A1). Format: functional. In general terms: Counterscreens check selectivity or assay interference.

Experiment [2] is described as follows: nonselective StAR promoter luciferase inhibitors – cell-based, luminescence, luciferase reporter, counter-screen for LRH-1 inverse agonist project, dose response (AID 651969). It counts as functional.
The test system of the next experiment is H9c2. The experiment in a line: cells. The note with it: Rattus norvegicus, H9c2, Myocardium. It counts as functional, cell-based.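 Also: confirmatory concentration-response retest of ultra-high-throughput screening hits for modulation of myocardial damage; cell death induced by hydrogen peroxide oxidative stress; compound pretreatment for 60 min then peroxide exposure for 2 h; potency is for protecting the cells against peroxide damage rather than for killing them.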
The target in experiment [3] is T1, ATP-dependent translocase ABCB1 (Homo sapiens, UniProt P08183). The experiment is described as follows: inhibition of BCRP-mediated JC-1 efflux – Ig-MXP3 cells, flow cytometry, set 2, dose response (AID 504566).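 Also: flow cytometry median green fluorescence of retained JC-1 dye; potency of efflux pump inhibition measured as rising substrate retention.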 It counts as functional. Conditions: read-out: EC50_MICROM_.
Experiment [4] has as its target T1, ATP-dependent translocase ABCB1. The experiment is described as follows: P-gp JC-1 efflux blockade concentration-response – Jurkat-DNR cells, flow cytometry, set 2, dose response (AID 504569).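 Also: potency of pump inhibitors that raise cellular JC-1 green fluorescence up to the nicardipine level.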 The note with it: read-out: EC50_MICROM_. Format: functional. Background: Flow cytometry measures light scatter and fluorescence of single cells or particles in a stream.

The target in experiment [5] is T2, Apoptotic protease-activating factor 1 (Homo sapiens, UniProt O14727).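 Also: caspase-3 cleavage of fluorogenic Rh110 DEVD substrate downstream of apoptosome activation.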
T2 sequence (O14727 whole entry): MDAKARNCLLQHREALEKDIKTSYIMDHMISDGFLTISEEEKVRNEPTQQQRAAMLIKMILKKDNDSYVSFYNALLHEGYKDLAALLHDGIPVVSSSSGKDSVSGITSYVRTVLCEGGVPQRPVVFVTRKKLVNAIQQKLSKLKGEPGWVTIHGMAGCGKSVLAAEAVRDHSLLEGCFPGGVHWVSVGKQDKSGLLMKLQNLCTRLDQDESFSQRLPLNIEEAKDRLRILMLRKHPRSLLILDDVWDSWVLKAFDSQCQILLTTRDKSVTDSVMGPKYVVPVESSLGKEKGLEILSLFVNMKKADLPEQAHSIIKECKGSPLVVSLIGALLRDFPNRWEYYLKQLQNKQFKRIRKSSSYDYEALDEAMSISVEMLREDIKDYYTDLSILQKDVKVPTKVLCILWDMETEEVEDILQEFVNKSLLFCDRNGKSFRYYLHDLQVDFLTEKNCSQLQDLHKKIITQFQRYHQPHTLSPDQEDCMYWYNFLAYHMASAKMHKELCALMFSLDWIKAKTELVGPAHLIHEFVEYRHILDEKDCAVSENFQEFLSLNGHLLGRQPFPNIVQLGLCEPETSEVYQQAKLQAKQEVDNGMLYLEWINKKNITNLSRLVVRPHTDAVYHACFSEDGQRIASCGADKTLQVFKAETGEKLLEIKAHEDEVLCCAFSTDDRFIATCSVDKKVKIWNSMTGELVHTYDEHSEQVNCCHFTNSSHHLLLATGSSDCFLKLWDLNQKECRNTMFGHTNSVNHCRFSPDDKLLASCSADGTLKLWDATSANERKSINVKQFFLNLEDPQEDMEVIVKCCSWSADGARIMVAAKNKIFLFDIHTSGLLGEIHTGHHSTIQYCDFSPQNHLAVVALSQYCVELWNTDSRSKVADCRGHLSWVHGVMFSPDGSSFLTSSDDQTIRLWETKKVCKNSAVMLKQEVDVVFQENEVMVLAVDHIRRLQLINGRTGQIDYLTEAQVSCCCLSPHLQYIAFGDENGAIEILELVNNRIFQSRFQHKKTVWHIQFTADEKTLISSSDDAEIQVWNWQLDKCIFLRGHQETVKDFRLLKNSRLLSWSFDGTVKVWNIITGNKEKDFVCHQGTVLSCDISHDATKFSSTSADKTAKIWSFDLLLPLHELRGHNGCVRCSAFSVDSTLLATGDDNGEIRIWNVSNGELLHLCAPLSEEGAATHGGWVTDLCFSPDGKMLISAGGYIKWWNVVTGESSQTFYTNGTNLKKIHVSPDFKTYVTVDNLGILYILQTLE
The experiment in a line: SAR analysis of small molecule Activators of Apaf-1 in a Fluorescent assay. The note with it: read-out: EC50_Mean. It counts as functional.

Experiment [6] deals with BJ. The experiment in a line: BJ-TERT fibroblast viability loss – cell-based, RAS-independent, luminescence, dose response (AID 1933). Format: functional. The note with it: Homo sapiens.
Experiment [7] concerns BJ. The experiment in a line: cells. The note with it: Homo sapiens. It counts as functional, cell-based.
Experiment [8] is described as follows: viability of PTEN-deleted HCT116 cells – cell-based, HCT116 PTEN knockout, dose response (AID 1047).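 Also: HCT116 colon tumor cells with PTEN knocked out; cells exposed to compound for 60 hours before readout; potency for loss of cell viability measured by luminescence.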 Format: functional.
Experiment [9] can be described thus: viability of HCT116 lacking mutant beta-catenin – cell-based, human colon tumor, dose response (AID 1045).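 Also: HCT116 colon tumor cells with beta catenin knocked out; cells exposed to compound for 60 hours.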 It counts as functional.
For experiment [10], the system named is BJ. The experiment in a line: BJ-TERT-LT-ST fibroblast viability loss – cell-based, RAS-independent, luminescence, dose response (AID 1935).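 Also: BJ fibroblasts immortalized with TERT plus LT and ST oncogenes.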 Format: functional. The note with it: Homo sapiens.
Experiment [11] in a line: DRD fibroblast viability loss – cell-based, non-viral oncogenic, luminescence, dose response (AID 1934). Format: functional. The note with it: Homo sapiens.
The next experiment deals with T3, Hexokinase HKDC1 (Homo sapiens, UniProt Q2TB90).
T3 sequence (Q2TB90 whole entry): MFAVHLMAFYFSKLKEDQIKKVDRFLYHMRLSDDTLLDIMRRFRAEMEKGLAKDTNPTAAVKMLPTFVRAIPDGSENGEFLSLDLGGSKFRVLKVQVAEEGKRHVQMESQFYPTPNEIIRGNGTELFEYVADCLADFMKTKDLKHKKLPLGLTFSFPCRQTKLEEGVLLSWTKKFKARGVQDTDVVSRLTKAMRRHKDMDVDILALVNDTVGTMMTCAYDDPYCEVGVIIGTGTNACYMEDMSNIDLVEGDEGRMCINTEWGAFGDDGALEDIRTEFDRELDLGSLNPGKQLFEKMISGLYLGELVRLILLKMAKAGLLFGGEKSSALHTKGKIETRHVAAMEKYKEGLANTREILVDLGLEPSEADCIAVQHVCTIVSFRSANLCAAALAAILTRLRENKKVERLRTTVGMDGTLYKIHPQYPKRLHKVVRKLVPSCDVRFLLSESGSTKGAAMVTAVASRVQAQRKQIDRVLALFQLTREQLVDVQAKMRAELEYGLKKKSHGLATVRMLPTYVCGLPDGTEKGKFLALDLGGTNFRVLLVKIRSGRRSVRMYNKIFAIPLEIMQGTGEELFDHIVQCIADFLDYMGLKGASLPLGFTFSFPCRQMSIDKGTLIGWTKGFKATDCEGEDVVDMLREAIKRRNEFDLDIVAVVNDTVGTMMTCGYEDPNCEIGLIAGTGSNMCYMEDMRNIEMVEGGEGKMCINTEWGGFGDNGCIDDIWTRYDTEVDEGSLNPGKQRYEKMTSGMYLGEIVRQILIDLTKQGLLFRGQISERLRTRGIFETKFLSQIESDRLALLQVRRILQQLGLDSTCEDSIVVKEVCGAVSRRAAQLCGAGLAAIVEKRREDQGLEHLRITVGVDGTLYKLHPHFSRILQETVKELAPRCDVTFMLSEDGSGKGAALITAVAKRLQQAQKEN
The experiment is described as follows: inhibition of HKDC1 glucose phosphorylation – biochemical, W721R variant, dose response (AID 504729). It counts as functional.

For experiment [12], the target named is T4, Replicative DNA helicase DnaB (Mycobacterium tuberculosis, UniProt P9WMR3).
T4 sequence (P9WMR3 whole entry): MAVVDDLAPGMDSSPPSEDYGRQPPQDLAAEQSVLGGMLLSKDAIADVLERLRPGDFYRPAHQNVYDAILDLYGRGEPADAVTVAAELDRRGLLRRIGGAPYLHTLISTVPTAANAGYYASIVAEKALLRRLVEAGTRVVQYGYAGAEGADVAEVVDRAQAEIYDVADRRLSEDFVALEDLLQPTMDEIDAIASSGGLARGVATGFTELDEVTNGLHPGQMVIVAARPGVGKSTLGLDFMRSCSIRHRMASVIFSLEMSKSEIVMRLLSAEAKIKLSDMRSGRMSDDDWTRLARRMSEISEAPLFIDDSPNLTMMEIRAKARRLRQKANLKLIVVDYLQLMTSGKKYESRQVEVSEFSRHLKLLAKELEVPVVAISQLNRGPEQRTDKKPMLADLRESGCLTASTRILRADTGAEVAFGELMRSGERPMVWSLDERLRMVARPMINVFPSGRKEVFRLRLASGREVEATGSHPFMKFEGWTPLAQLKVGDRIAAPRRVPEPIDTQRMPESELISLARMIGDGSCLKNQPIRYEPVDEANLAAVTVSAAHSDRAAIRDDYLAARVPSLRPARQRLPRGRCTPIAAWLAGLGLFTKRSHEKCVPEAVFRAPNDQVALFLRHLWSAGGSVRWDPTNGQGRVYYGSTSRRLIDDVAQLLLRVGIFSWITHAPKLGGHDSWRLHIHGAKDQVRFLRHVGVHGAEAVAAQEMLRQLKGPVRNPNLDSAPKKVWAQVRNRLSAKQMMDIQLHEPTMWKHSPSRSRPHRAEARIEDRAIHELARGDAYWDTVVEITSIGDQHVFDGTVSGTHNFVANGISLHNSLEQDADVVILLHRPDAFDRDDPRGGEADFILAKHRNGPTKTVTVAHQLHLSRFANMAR
The experiment is described as follows: DnaB intein splicing inhibitors, dose response, biochemical, cell-free fluorescence (AID 449749). Format: functional.

A further experiment concerns the target T5, Protein RecA (Mycobacterium tuberculosis, UniProt P9WHJ3).
T5 sequence (P9WHJ3 whole entry): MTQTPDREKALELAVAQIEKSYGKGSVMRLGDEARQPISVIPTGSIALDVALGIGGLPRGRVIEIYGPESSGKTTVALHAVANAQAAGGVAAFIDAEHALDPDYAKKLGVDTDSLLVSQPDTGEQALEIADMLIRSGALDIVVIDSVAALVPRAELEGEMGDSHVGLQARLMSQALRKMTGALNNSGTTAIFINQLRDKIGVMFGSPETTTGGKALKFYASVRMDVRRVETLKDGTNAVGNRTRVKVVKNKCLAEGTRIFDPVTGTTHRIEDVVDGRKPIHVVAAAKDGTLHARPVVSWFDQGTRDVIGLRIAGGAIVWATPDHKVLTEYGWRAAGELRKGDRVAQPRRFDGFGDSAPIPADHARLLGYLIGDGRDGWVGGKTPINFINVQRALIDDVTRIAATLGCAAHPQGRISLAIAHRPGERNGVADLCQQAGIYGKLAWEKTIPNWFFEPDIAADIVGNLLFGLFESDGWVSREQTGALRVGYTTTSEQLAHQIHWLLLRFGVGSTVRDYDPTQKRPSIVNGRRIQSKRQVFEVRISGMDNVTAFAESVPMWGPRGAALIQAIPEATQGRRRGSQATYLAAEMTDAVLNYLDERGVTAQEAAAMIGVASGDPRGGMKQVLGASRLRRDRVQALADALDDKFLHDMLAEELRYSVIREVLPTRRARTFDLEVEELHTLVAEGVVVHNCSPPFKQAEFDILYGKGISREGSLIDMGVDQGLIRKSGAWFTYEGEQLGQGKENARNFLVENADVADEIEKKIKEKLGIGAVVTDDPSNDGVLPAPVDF
The experiment in a line: Fluorescence Cell-Free Homogeneous Dose Retest to Identify Inhibitors of RecA-Intein Splicing Activity. [Related pubchem assays (depositor defined):AID2097, AID2223, AID489010, AID492950]. It counts as functional.

For experiment [13], the target named is T6, Mitochondrial peptide methionine sulfoxide reductase (Bos taurus, UniProt P54149).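 Also: absorbance read-out, biochemical high-throughput dose-response screen for MsrA inhibitors, confirmatory; recombinant bovine MsrA coupled to E. coli TrxB with NADPH and selenocystamine; potency is for inhibitors of MsrA activity on DMSO substrate.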
T6 sequence (P54149 whole entry): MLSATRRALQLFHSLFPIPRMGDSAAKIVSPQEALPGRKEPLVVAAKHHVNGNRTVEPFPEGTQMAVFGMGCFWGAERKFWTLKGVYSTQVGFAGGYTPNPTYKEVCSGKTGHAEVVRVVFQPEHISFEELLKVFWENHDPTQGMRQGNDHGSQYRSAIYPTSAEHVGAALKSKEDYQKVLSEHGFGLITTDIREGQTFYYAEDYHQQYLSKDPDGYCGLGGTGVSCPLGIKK
It counts as functional.

Experiment [14] concerns the target Voltage-dependent T-type calcium channel subunit alpha-1H (Homo sapiens, UniProt O95180). It counts as functional.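 Also: channel activity triggered by adding a high calcium stimulation buffer.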
For experiment [15], the target named is Potassium voltage-gated channel subfamily KQT member 2 (Rattus norvegicus, UniProt O88943). The experiment in a line: blockers of KCNQ2 channel current – cell-based, automated electrophysiology, set II, rat KCNQ2, dose response (AID 588637). It counts as functional.

T1 sequence (P08183 whole entry): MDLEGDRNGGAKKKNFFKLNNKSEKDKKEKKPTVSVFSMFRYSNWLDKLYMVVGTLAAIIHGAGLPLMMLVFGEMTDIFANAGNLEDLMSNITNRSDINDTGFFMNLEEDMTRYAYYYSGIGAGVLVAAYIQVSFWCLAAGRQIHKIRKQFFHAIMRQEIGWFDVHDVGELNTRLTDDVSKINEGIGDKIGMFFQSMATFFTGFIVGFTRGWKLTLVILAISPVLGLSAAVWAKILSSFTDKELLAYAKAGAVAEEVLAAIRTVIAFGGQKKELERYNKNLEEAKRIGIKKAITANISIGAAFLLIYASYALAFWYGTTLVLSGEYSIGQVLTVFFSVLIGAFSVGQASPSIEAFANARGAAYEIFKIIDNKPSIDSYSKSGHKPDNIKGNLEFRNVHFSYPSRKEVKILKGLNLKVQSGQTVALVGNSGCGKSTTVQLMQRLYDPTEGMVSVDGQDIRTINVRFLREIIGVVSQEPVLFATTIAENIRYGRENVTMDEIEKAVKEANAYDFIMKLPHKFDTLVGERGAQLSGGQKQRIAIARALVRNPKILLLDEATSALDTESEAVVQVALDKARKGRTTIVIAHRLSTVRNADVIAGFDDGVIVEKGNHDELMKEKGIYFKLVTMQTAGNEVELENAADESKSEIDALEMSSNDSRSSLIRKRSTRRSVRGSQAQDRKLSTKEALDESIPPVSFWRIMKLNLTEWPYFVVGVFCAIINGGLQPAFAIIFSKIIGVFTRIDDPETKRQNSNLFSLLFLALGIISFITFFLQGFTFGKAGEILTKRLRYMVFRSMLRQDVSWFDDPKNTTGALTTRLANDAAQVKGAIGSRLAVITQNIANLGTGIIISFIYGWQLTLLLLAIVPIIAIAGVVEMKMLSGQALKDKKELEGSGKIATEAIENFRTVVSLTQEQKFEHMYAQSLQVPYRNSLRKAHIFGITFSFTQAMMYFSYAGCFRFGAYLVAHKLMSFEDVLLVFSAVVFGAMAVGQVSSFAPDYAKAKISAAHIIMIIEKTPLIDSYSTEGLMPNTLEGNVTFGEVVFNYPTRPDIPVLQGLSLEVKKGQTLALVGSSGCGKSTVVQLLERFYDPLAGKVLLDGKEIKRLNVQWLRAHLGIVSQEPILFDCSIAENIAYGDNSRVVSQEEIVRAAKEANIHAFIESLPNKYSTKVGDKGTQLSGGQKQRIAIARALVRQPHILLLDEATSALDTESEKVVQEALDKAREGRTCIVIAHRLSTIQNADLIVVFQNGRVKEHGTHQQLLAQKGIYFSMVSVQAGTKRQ
Chain of Steroidogenic factor 1 (Q13285 whole entry): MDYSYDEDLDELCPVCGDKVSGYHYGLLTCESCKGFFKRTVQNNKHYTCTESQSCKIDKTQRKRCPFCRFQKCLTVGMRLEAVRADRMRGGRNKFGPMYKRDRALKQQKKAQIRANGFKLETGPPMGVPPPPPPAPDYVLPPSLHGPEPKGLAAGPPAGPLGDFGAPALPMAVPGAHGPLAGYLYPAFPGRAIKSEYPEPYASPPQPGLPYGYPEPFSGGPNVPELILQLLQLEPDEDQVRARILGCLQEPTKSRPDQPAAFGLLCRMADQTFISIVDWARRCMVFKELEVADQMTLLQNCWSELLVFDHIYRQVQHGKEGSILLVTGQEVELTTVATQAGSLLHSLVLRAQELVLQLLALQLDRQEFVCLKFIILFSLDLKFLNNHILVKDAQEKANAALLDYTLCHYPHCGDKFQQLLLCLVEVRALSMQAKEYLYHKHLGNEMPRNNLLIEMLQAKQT
Chain of Nuclear receptor subfamily 5 group A member 2 (O00482 whole entry): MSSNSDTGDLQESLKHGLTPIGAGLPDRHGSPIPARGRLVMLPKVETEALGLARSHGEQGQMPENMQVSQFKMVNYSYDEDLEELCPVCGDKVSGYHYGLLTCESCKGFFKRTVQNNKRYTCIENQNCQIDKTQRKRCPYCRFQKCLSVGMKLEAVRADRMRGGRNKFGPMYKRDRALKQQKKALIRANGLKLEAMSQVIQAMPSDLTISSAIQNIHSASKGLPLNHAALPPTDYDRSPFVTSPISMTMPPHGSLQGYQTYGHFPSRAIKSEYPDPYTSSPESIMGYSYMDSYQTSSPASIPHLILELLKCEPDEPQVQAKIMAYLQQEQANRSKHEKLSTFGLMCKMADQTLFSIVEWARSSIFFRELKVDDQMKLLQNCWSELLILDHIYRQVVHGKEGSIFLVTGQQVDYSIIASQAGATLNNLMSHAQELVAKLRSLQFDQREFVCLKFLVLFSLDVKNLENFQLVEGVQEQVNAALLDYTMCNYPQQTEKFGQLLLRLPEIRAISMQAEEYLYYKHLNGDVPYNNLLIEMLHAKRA
Chain of Voltage-dependent T-type calcium channel subunit alpha-1H (O95180 whole entry): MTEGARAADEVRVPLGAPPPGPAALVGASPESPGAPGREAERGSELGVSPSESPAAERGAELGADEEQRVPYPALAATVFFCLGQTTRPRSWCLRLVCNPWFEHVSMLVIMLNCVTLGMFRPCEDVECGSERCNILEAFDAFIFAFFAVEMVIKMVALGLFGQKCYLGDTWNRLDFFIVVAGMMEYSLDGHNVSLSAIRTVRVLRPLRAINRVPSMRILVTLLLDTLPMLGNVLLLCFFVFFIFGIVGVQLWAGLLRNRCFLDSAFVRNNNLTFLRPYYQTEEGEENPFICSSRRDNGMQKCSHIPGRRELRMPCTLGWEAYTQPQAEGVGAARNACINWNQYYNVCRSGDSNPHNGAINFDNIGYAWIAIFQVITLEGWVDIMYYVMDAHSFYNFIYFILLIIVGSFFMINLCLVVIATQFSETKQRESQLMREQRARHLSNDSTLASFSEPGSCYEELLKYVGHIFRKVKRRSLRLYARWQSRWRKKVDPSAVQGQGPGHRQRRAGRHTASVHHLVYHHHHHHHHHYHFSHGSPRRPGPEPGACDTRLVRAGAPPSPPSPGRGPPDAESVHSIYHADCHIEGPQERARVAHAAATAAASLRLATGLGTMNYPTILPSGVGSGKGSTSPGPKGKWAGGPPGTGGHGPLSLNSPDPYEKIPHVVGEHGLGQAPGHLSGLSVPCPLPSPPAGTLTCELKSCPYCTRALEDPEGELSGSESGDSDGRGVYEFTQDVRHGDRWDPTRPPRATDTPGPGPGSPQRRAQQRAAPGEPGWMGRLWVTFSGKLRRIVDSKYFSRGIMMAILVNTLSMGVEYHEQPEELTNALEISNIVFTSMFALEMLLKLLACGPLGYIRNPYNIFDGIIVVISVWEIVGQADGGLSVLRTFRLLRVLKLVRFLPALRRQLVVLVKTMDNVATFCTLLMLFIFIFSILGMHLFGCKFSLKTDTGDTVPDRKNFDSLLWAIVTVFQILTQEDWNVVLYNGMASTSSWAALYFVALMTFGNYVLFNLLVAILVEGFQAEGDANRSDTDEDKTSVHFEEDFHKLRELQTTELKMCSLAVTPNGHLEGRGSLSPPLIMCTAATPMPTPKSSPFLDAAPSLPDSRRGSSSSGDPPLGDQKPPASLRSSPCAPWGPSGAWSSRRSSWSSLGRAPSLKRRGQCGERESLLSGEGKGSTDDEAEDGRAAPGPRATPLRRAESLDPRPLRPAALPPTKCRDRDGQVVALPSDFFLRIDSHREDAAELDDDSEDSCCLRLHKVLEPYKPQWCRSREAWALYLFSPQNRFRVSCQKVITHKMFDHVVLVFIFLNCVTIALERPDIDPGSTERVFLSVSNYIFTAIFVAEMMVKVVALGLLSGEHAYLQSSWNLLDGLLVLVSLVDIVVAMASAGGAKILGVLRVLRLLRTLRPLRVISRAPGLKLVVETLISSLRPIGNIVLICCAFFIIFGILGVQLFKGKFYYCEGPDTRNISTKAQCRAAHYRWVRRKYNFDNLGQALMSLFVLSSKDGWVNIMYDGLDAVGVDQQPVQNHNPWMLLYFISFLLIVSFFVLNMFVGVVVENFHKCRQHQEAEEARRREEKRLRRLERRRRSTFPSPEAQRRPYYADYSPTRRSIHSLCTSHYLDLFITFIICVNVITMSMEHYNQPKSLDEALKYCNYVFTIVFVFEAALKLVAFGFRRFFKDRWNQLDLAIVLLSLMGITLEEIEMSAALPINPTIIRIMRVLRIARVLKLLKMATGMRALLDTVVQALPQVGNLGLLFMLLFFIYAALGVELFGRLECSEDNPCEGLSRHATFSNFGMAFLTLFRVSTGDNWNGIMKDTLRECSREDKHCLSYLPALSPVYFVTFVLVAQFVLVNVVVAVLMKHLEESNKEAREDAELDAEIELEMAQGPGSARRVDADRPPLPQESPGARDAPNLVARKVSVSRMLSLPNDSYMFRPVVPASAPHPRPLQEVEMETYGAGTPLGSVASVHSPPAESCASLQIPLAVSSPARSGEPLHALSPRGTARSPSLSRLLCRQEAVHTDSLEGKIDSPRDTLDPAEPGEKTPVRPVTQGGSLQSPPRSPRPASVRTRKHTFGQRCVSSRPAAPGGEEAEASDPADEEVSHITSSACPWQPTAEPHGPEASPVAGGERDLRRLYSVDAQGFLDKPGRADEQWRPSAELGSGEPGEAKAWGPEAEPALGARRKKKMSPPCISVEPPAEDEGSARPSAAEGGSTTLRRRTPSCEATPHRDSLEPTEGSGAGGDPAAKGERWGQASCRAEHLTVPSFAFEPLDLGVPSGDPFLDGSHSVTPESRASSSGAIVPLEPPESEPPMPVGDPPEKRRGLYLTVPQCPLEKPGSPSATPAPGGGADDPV

Take `CC(=O)Nc1ccc(NC(=O)CSc2nnc(-c3cc4ccccc4o3)n2C)cc1`: the IC50 (as a rule, the concentration at which inhibition is half-maximal) is 35.9 µM (inactive) in experiment [1], 18.2 µM (inactive) at Steroidogenic factor 1 and 35.9 µM (inactive) in experiment [2].
On to `O=C(c1ccoc1)N1CCN(c2cc(-c3ccncc3)nc3cc(-c4cccc(Cl)c4)nn23)CC1`, for which the IC50 in the experiment on H9c2 is > 79 µM (inactive). Further, the EC50 in [3] is 2.21 µM (active); in [4], 3.43 µM (active).
As to `O=C(O)c1coc(-c2ccc(-c3ccccc3)cc2)n1`, the EC50 in [5] was > 100 µM (inactive).
With `O=C(C1=C(c2ccccc2)C(=O)c2ccccc2C1=O)c1ccccc1`, the EC50 with BJ [6] is 5.95 µM (inconclusive); with BJ [7] it was 7.17 µM (active); in experiment [8], 2.73 µM (active); in experiment [9] it was 2.72 µM (active); in the experiment on BJ [10], 8.65 µM (inconclusive); in experiment [11] it was > 150 µM (not active). The EC50 on Protein RecA was 0.862 µM (active). In addition, the values for the IC50 (at Hexokinase HKDC1; in [13]) were 10.1 µM (active) and 13.8 µM (inactive), respectively. In [12], the concentration at half-maximal activity (AC50) (as a rule, the concentration giving half of the maximal activity seen) was 8.2 µM (active).
For `CCOc1ccc(-c2nc(CSCC(=O)NC3CCCc4ccccc43)c(C)o2)cc1` (centres undefined), in experiment [14], the EC50 was 3.26 µM (active). In addition, in experiment [15], the IC50 is 1.51 µM (active).
